Structures can show the parent of a compound that is named as a salt.
What follows are molecules tested against T1, α-amylase from Thermoalcalibacter bogoriae (Anaerobranca gottschalkii, UniProt Q5I942) (assay: Effect of metal ions and chemical reagents on amylase activity). Conditions: pH 8.
T1 sequence (Q5I942 24-532): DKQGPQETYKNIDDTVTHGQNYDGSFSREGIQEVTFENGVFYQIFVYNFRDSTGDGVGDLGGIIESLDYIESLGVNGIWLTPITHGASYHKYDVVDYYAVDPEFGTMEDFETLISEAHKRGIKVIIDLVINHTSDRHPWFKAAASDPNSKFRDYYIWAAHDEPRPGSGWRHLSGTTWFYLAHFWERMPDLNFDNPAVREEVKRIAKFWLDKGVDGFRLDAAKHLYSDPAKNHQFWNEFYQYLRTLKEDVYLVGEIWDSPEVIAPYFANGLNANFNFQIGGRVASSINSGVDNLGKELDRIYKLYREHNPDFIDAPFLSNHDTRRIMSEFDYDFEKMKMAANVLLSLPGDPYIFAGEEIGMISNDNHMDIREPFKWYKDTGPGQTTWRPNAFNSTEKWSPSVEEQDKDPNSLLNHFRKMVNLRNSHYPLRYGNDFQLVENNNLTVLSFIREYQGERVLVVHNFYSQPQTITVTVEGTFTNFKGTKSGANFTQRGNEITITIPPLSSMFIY
Type: biochemical
Experimental: The effect of metal ions on the activity of the amylase of the present invention was examined by pre-incubating the enzyme together with metal ions for 30 min. at 65° C., pH 8.0 in a substrate solution containing (wt/vol) soluble starch (0.5%). Subsequently an enzyme assay was performed at 65° C. for 30 min in order to determine the residual activity of the amylase. For further details see working example herein (vide infra) and FIG. 4.
The amylase activity was measured at pH 8.0 -higher pH would interfere with metal ion solutions- and 65° C. in presence of various metal ions at 1 mM, 2 mM and 5 mM concentration and in presence of some chemical reagents (FIG. 4).

Row | Structure (SMILES) | effect of metal ions on amylase activity
1 | O=C(O)CN(CCN(CC(=O)O)CC(=O)O)CC(=O)O [EDTA] | not or only slightly inhibited

Same assay, conditions: pH 8.0, 65° C., 1 mM, 2 mM and 5 mM

Row | Structure (SMILES) | effect of metal ions on amylase activity
2 | [Ca+2] [Ca^2+] | not or only slightly inhibited
3 | [Co+2] [Co^2+] | not or only slightly inhibited
4 | [Cr+6] [Cr^6+] | Strong inhibition
5 | [Cu+2] [Cu^2+] | Strong inhibition
6 | [Fe+2] [Fe^2+] | Strong inhibition
7 | [Mg+2] [Mg^2+] | Moderate inhibition
8 | [Mn+2] [Mn^2+] | moderate stimulation
9 | [Ni+2] [Ni^2+] | Moderate inhibition
10 | [V+4] [V^4+] | Strong inhibition
11 | [Zn+2] [Zn^2+] | Moderate inhibition

Same assay, conditions: pH 8.0, 65° C., 5 mM

Row | Structure (SMILES) | effect of chemical reagents on amylase activity at 5 mM
12 | OC(CS)C(O)CS (stereo not drawn) [DTT] | totally inhibited
13 | N=C(N)N [Guanidine-HCl] | stimulatory effect
14 | NCCc1ccc(S(=O)(=O)F)cc1 [Pefabloc SC] | did not interfer
15 | CCCCCCCCCCCCOS(=O)(=O)O [SDS] | totally inhibited

Reference: patent US6165770A, “Alkaline stable amylase from Thermoalcalibacter” (Novo Nordisk A/S, priority 1996, dated 2000)
